Earlier results as cited in patent US20130345257A1, “COMPOSITION FOR LUPUS NEPHRITIS AND METHODS OF MAKING AND USING THE SAME” (The Regents of the University of California, priority 2012, published 2013).

Legend:
[1] = pulled out of a clinical trial; cited from earlier work
[2] = system: human lupus; details: phase 1b trial; cited from earlier work
[3] = system: murine SLE model; details: mouse, in vivo; cited from earlier work

Row | SMILES | Toxicity in clinical trial [1] | Adverse events profile [2] | Efficacy in murine SLE model [3]
1 | CN(C(=O)c1c(O)c2ccccc2n(C)c1=O)c1ccccc1 [roquinimex] | serious cardiovascular toxicities |  | 
2 | CCc1cccc2c1c(O)c(C(=O)N(CC)c1ccccc1)c(=O)n2C [paquinimod] |  | favorable adverse events profile | effective
